{
  "source": "patent US20100310579A1",
  "about": "“METHOD FOR INHIBITING ANGIOGENESIS OR FOR TREATMENT OF CANCER” (Faron Ventures Oy, priority 2007, published 2010)",
  "format_in_all_cases": "in vivo",
  "key": {"[1]": {"tested_on": "Luciferase-containing B16 melanoma cells", "assay": "B16 melanoma tumor growth in mice (bioluminescence imaging, tumor volume)", "description": "In the melanoma model, age- and sex-matched VAP-1 deficient and wt C57/B16 mice were used (Stolen, C. M., F. Marttila-Ichihara, K. Koskinen, G. G. Yegutkin, R. Turja, P. Bono, M. Skurnik, A. Hanninen, S. Jalkanen, and M. Salmi. 2005. Immunity 22:105-115). Luciferase-containing B16 melanoma cells were purchased from Xenogen. Tumor cells (4×10^5 in 200 μl) were injected subcutaneously into the flanks of isoflurane anesthesized mice. Immediately thereafter, a substrate for the luciferase (D-luciferin sodium salt, Synchem, Kassel, Germany; 150 mg/kg i.p.) was injected, and 10 min later the light generated was recorded using bioluminescence imaging (IVIS 50 workstation, Xenogen). The signal intensities were quantified as the photon counts using the Living Image software (Xenogen). […] The growth of tumors was then followed for 10 d, and at the indicated time points, the animals were re-subjected to the bioluminescence imaging. The diameter of the tumor was also measured using an electronic caliber (Mitutoyo, Japan). The volume of the tumor was approximated using the formula: 0.5×(longest diameter)×(shortest diameter). In the lymphoma model, EL-4 cells were injected into the abdominal area (10×10^6 cells/mouse in 200 μl of RPMI1640. tumor growth was followed using the electronic caliber.\n(§1) The tumor model was established as above. The animals were treated every second day with anti-VAP-1 mAb (7-106+7-88, 100 μg each/mouse) or with a negative control mAb HB151 (200 μg/mouse, ip) (Merinen, M., H. Irjala, M. Salmi, I. Jaakkola, A. Hanninen, and S. Jalkanen. 2005. e. Am. J. Pathol. 166:793-800). The antibodies were produced in serum and BSA-free medium, concentrated, and dialyzed against PBS. Another group of mice were treated with the VAP-1 inhibitor SZE 5302 (50 mg/kg, ip, daily) or with the vehicle (saline) (Koskinen, K., P. J. Vainio, D. J. Smith, M. Pihlavisto, S. Yla-Herttuala, S. Jalkanen, and M. Salmi. 2004. Blood 103:3388-3395). The growth of the tumor was then followed using bioluminescence imaging or volume measurements as described above."}, "[2]": {"tested_on": "CD31-positive vessels in melanoma tumors", "assay": "CD31-positive vessels in melanoma tumors (immunohistochemistry, neoangiogenesis)", "conditions": "melanoma tumors resected d10, treated vs control mice, FIG. 3", "description": "as §1\nAt the end of the experiment, tumors were excised from the mice and processed for immunohistochemical staining. Anti-mouse CD31 mAb (MEC13.3, IHC formula, 1:300 dilution; Pharmingen) and a negative control mAb (9B5) were used for indirect immunoperoxidase stainings. The sections were counterstained with hematoxylin-eosin, and mounted in Depex. In certain cases, formalin-fixed, paraffin embedded sections were stained with HE. The CD31-positive vessels or vessels in HE-stained sections were enumerated by counting the number of vessels in the whole tumor area using a 400× magnification. […]"}, "[3]": {"tested_on": "myeloid-derived suppressor cells (MDSC) in melanoma tumors", "assay": "CD11b-positive myeloid-derived suppressor cells in melanoma tumors (microscopic counting)", "conditions": "wt mice treated with inhibitor vs vehicle, FIG. 6", "text": "FIG. 6. VAP-1 selectively supports recruitment of pro-angiogenic myeloid-derived suppressor cells in melanoma tumors. CD11b-positive cells were quantified by microscopic counting in wt and VAP-1 deficient mice and in wt treated with vehicle or SZE5302 inhibitor. Data (mean±SEM) are from 9 mice per group, ** p<0.01.\nAt the end of the experiment, tumors were excised from the mice and processed for immunohistochemical staining. Anti-mouse CD31 mAb (MEC13.3, IHC formula, 1:300 dilution; Pharmingen) and a negative control mAb (9B5) were used for indirect immunoperoxidase stainings. The sections were counterstained with hematoxylin-eosin, and mounted in Depex. In certain cases, formalin-fixed, paraffin embedded sections were stained with HE. The CD31-positive vessels or vessels in HE-stained sections were enumerated by counting the number of vessels in the whole tumor area using a 400× magnification. Sections were also stained with CD11b and Gr-1 antibodies."}, "[4]": {"tested_on": "EL-4 lymphoma cells", "assay": "EL-4 lymphoma growth in mice (tumor volume)", "conditions": "wt mice, s.c. EL-4 lymphoma, treated vs control, FIG. 5b", "description": "FIG. 5. Defective migration of myeloid-derived suppressor cells (MDSC), angiogenesis and growth of lymphoma in VAP-1 deficient mice (a, b). EL-4 lymphoma cells were injected subcutaneously into (a) wt and VAP-1 deficient mice and (b) control and SZE5302 treated mice, and the growth of the lymphomas (volume) was measured kinetically. VAP-1 activity in control and SZE5302 treated mice was measured using enzyme assay (c) Immunohistochemical stainings of (d) VAP-1 and (e) CD31 expression in tumor vessels in EL-4 lymphoma grown in wt and VAP-1 −/− mice. Some positive vessels are pointed out by arrows. Lymphoma cells also express low levels of CD31. Bar 50 μm. The numbers of (f) CD31 positive vessels and (g) CD11b positive cells was determined using immunohistochemistry. […]\nIn the melanoma model, age- and sex-matched VAP-1 deficient and wt C57/B16 mice were used (Stolen, C. M., F. Marttila-Ichihara, K. Koskinen, G. G. Yegutkin, R. Turja, P. Bono, M. Skurnik, A. Hanninen, S. Jalkanen, and M. Salmi. 2005. Immunity 22:105-115). […] Immediately thereafter, a substrate for the luciferase (D-luciferin sodium salt, Synchem, Kassel, Germany; 150 mg/kg i.p.) was injected, and 10 min later the light generated was recorded using bioluminescence imaging (IVIS 50 workstation, Xenogen). The signal intensities were quantified as the photon counts using the Living Image software (Xenogen). […]"}},
  "data": [
    {"compound": "CN(N)[C@H]1Cc2ccccc2[C@@H]1O", "note": "[SZE5302]", "values": [
      {"measurement": "tumor volume (physical measurement)", "setting": "[1]; day 7, wt mice, B16 melanoma, 50 mg/kg ip daily", "value": "significant reduction"},
      {"measurement": "melanoma size", "setting": "[1]; day 10, wt mice, B16 melanoma, 50 mg/kg ip daily", "value": "clearly smaller"},
      {"measurement": "tumor growth", "setting": "[1]; wt mice, s.c. B16 melanoma, 50 mg/kg ip daily vs vehicle, FIG. 2B", "value": "significant decrease in tumor growth"},
      {"measurement": "number of CD31+ positive (new) vessels in the tumor", "setting": "[2]", "value": "significantly fewer"},
      {"measurement": "number of MDSC in the melanomas", "setting": "[3]", "value": "strongly reduced"},
      {"measurement": "tumor growth (lymphoma volume)", "setting": "[4]", "value": "strongly inhibited tumor growth"}
    ]}
  ]
}
